Legend:
MV4-11 [1] = assay: Antitumor activity against human MV4-11 cells xenografted in BALB/c mouse assessed as tumor growth inhibition at 15 mg/kg, iv QD for 21 days by vernier caliper analysis; type: functional; settings: MV4-11, 504 h, time 21 day, read-out: TGI
BaF3 [2] = assay: Antiproliferative activity against mouse BaF3 cells harboring FLT3-ITD mutant assessed as reduction in cell viability measured after 72 hrs by CellTiterGlo luminescent assay; type: functional, cell-based; settings: BaF3, 72 h
[3] = Clearance in Sprague-Dawley rat at 1 mg/kg, iv measured for 24 hrs by LC-MS/MS analysis; type: ADME, organism-based; settings: in vivo
MV4-11 [4] = assay: Induction of cell cycle arrest in human MV4-11 cells assessed as proportion of cells at G1 phase at 10 nM incubated for 24 hrs by PI staining based flow cytometry (reference value: 56%); type: functional
[5] = Ratio of IC50 for antiproliferative activity against mouse BaF3 cells harboring FLT3-ITD-F691L mutant to IC50 for antiproliferative activity against mouse BaF3 cells harboring FLT3-ITD mutant; type: functional
[6] = Toxicity in BALB/c mouse xenografted with human MV4-11 cells assessed as morphological changes in lung at 15 mg/kg, iv for 21 days by H and E staining based analysis; type: organism-based; settings: in vivo, 504 h, time 21 day
Panc02 = assay: Antiproliferative activity against mouse Panc02 cells assessed as reduction in cell viability measured after 72 hrs by CellTiterGlo luminescent assay; type: functional, cell-based; settings: Panc02, 72 h
[7] = Ratio of IC50 for antiproliferative activity against mouse BaF3 cells harboring FLT3-ITD-Y842H mutant to IC50 for antiproliferative activity against mouse BaF3 cells harboring FLT3-ITD mutant; type: functional
[8] = Tmax in Sprague-Dawley rat at 10 mg/kg, po measured for 24 hrs by LC-MS/MS analysis; type: ADME, organism-based; settings: in vivo
[9] = MRT (0 to t) in Sprague-Dawley rat at 1 mg/kg, iv measured for 24 hrs by LC-MS/MS analysis; type: ADME, organism-based; settings: in vivo
MV4-11 [10] = assay: Induction of cell cycle arrest in human MV4-11 cells assessed as proportion of cells at G1 phase at 50 nM incubated for 24 hrs by PI staining based flow cytometry (reference value: 56%); type: functional
[11] = Antiproliferative activity against mouse BaF3 cells assessed as reduction in cell viability measured after 72 hrs by CellTiterGlo luminescent assay; type: toxicity, cell-based
[12] = Initial drug concentration in Sprague-Dawley at 1 mg/kg, iv by LC-MS/MS analysis; type: ADME, organism-based; settings: rat, in vivo
MV4-11 [13] = assay: Induction of apoptosis in human MV4-11 cells assessed as early apoptotic cells at 100 nM incubated for 24 hrs by AnnexinV-FITC/PI staining based flow cytometry (reference value: 3.09%); type: functional
[14] = Toxicity in BALB/c mouse xenografted with human MV4-11 cells assessed as morphological changes in heart at 15 mg/kg, iv for 21 days by H and E staining based analysis; type: organism-based; settings: in vivo, 504 h, time 21 day
MV4-11 [15] = assay: Induction of apoptosis in human MV4-11 cells assessed as early apoptotic cells at 50 nM incubated for 24 hrs by AnnexinV-FITC/PI staining based flow cytometry (reference value: 3.09%); type: functional
BaF3 [16] = assay: Antiproliferative activity against mouse BaF3 cells harboring FLT3-ITD-F691L mutant assessed as residual cell viability at 10 nM incubated for 72 hrs by CellTiterGlo luminescent assay; type: functional
MV4-11 [17] = assay: Antitumor activity against human MV4-11 cells xenografted in BALB/c mouse assessed as inhibition rate of tumor weight at 15 mg/kg, iv BID for 21 days by vernier caliper analysis; type: functional; settings: MV4-11, 504 h, time 21 day
MV4-11 [18] = assay: Induction of cell cycle arrest in human MV4-11 cells assessed as proportion of cells at G1 phase at 100 nM incubated for 24 hrs by PI staining based flow cytometry (reference value: 56%); type: functional
BaF3 [19] = assay: cells; settings: Mus musculus, BaF3, 72 h
Description: Antiproliferative activity against mouse BaF3 cells harboring FLT3-ITD-D835V mutant assessed as reduction in cell viability measured after 72 hrs by CellTiterGlo luminescent assay

[20] = Volume of distribution at steady state in Sprague-Dawley rat at 1 mg/kg, iv measured for 24 hrs by LC-MS/MS analysis; type: ADME, organism-based; settings: in vivo, read-out: Vdss
[21] = Ratio of IC50 for antiproliferative activity against mouse BaF3 cells harboring FLT3-ITD-N676D mutant to IC50 for antiproliferative activity against mouse BaF3 cells harboring FLT3-ITD mutant; type: functional
BaF3 [22] = assay: Antiproliferative activity against mouse BaF3 cells harboring FLT3-ITD-N676D mutant assessed as reduction in cell viability measured after 72 hrs by CellTiterGlo luminescent assay; type: functional, cell-based; settings: BaF3, 72 h
[23] = Toxicity in ICR mouse assessed as behavioural changes at 100 mg/kg, iv administered as single dose and measured for 14 days; type: organism-based; settings: in vivo, 336 h, time 14 day
BaF3 [24] = assay: Antiproliferative activity against mouse BaF3 cells harboring FLT3-ITD-F691L mutant assessed as residual cell viability at 50 nM incubated for 72 hrs by CellTiterGlo luminescent assay; type: functional
[25] = molecular target: Receptor-type tyrosine-protein kinase FLT3 (Homo sapiens) (UniProt P36888); assay: Inhibition of FLT3 in human MV4-11 cells assessed as inhibition of STAT5 phosphorylation at Tyr694 residue at 10 nM incubated for 4 hrs by western blot analysis; type: cell-based
Receptor-type tyrosine-protein kinase FLT3 (Homo sapiens), sequence (P36888 whole entry): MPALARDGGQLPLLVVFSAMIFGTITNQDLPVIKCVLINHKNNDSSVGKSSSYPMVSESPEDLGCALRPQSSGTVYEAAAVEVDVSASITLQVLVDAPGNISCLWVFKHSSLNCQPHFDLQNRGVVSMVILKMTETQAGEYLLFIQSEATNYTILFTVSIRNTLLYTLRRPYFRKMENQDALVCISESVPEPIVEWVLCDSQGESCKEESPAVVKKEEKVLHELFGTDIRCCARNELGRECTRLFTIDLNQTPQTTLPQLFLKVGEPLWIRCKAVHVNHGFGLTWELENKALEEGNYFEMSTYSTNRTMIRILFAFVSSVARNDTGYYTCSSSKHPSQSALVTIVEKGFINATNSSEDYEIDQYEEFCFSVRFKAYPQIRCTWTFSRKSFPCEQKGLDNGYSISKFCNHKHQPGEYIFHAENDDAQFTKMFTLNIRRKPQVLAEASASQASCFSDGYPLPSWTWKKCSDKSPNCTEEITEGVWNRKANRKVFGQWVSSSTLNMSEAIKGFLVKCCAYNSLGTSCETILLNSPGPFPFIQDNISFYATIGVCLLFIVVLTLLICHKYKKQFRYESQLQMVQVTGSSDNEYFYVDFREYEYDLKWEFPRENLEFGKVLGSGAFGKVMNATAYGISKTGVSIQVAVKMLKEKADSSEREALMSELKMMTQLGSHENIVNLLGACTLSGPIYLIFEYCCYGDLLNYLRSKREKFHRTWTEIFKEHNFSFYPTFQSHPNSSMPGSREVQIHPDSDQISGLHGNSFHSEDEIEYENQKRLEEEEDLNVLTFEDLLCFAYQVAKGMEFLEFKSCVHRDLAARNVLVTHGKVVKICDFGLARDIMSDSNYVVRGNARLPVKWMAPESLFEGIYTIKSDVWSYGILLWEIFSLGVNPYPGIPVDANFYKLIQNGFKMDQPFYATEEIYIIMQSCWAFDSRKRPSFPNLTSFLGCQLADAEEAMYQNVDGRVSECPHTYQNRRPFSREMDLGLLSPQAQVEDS

[26] = Toxicity in BALB/c mouse xenografted with human MV4-11 cells assessed as change in body weight at 15 mg/kg, iv QD for 21 days; type: organism-based; settings: in vivo, 504 h, time 21 day
[27] = molecular target: Receptor-type tyrosine-protein kinase FLT3 (Homo sapiens) (UniProt P36888); assay: Inhibition of FLT3 in human MV4-11 cells assessed as inhibition of STAT5 phosphorylation at Tyr694 residue incubated for 4 hrs by western blot analysis; type: cell-based; settings: dose 0.1-100 nM
[28] = AUC (0 to t) in Sprague-Dawley rat at 10 mg/kg, po measured for 24 hrs by LC-MS/MS analysis; type: ADME, organism-based; design: time 24 hrs, dose 10 mg/kg, route po; settings: in vivo
[29] = Half life in Sprague-Dawley rat at 10 mg/kg, po measured for 24 hrs by LC-MS/MS analysis; type: ADME, organism-based; settings: in vivo
[30] = AUC (0 to t) in Sprague-Dawley rat at 1 mg/kg, iv measured for 24 hrs by LC-MS/MS analysis; type: ADME, organism-based; design: dose 1 mg/kg, time 24 hrs, route iv; settings: in vivo
NB-4 = assay: Antiproliferative activity against human NB-4 cells assessed as reduction in cell viability measured after 72 hrs by CellTiterGlo luminescent assay; type: functional, cell-based; settings: NB-4, 72 h
[31] = Toxicity in BALB/c mouse xenografted with human MV4-11 cells assessed as platelet count at 15 mg/kg, iv for 21 days; type: organism-based; settings: in vivo, 504 h, time 21 day
[32] = Toxicity in BALB/c mouse xenografted with human MV4-11 cells assessed as white blood cell count at 15 mg/kg, iv for 21 days; type: organism-based; settings: in vivo, 504 h, time 21 day
[33] = molecular target: Receptor-type tyrosine-protein kinase FLT3 (Homo sapiens) (UniProt P36888); assay: Inhibition of FLT3 in human MV4-11 cells assessed as inhibition of ERK phosphorylation at Thr202/Tyr204 residue incubated for 4 hrs by western blot analysis; type: cell-based; settings: dose 0.1-100 nM
U-937 = assay: Antiproliferative activity against human U-937 cells assessed as reduction in cell viability measured after 72 hrs by CellTiterGlo luminescent assay; type: functional, cell-based; settings: U-937, 72 h
[34] = test system: Receptor-type tyrosine-protein kinase FLT3 (Homo sapiens), P36888 [UNDEFINED MUTATION]; type: cell-based; settings: BaF3, dose 0.1-100 nM, time 4.0 hrs
Receptor-type tyrosine-protein kinase FLT3 (Homo sapiens), P36888 [UNDEFINED MUTATION], sequence (P36888 whole entry, looked up, change not shown): as the sequence (P36888 whole entry) above

**Q.** For `CCN1CCN(c2ccc(C(=O)Nc3cc(-c4ccc5ncn(Cc6c(Cl)cccc6Cl)c5c4)[nH]n3)cc2)CC1`, which inhibition in vivo at 15 mg/kg (MV4-11 [1]) is on record?
**A.** 99.5%

**Q.** What about the IC50 (BaF3 [2]) of the same compound?
**A.** 7.6 nM

**Q.** And the clearance [3]?
**A.** 40.2 mL/min/kg

**Q.** What about the Activity (MV4-11 [4]) of the same compound?
**A.** 88.7%

**Q.** And the “Ratio IC50” value [5]?
**A.** 1.09

**Q.** And the Activity [6]?
**A.** Non-Toxic

**Q.** What about the IC50 (Panc02) of the same compound?
**A.** 2740 nM

**Q.** And the “Ratio IC50” value [7]?
**A.** <0.2

**Q.** And the Tmax [8]?
**A.** 1.33 h

**Q.** What about the MRT last at 24 h [9] of the same compound?
**A.** 1.96 h

**Q.** And the Activity (MV4-11 [10])?
**A.** 88.1%

**Q.** And the IC50 at 72 h [11]?
**A.** 4100 nM

**Q.** What about the C0 [12] of the same compound?
**A.** 368 ng/mL

**Q.** What about the Activity (MV4-11 [13]) of the same compound?
**A.** 15.2%

**Q.** What about the Activity [14] of the same compound?
**A.** Non-Toxic

**Q.** And the Activity (MV4-11 [15])?
**A.** 11.3%

**Q.** What about the Activity (BaF3 [16]) of the same compound?
**A.** 43.16%

**Q.** What about the inhibition in vivo at 15 mg/kg (MV4-11 [17]) of the same compound?
**A.** 85.2%

**Q.** And the Activity (MV4-11 [18])?
**A.** 90.3%

**Q.** What about the IC50 (BaF3 [19]) of the same compound?
**A.** < 1.5 nM

**Q.** What about the Vd [20] of the same compound?
**A.** 6.27 L/kg

**Q.** And the “Ratio IC50” value [21]?
**A.** 5.58

**Q.** And the IC50 (BaF3 [22])?
**A.** 42.4 nM

**Q.** What about the Activity [23] of the same compound?
**A.** Non-Toxic

**Q.** And the Activity (BaF3 [24])?
**A.** 2.54%

**Q.** And the inhibition [25]?
**A.** 100%

**Q.** And the Activity [26]?
**A.** Non-Toxic

**Q.** What about the inhibition [27] of the same compound?
**A.** Dose-Dependent Effect

**Q.** And the AUC(0-t) at 24 h [28]?
**A.** 50.9 ng·h/mL

**Q.** What about the half-life [29] of the same compound?
**A.** 3.58 h

**Q.** What about the AUC(0-t) at 24 h [30] of the same compound?
**A.** 391 ng·h/mL

**Q.** And the IC50 (NB-4)?
**A.** > 5000 nM

**Q.** What about the Activity [31] of the same compound?
**A.** Non-Toxic

**Q.** What about the Activity [32] of the same compound?
**A.** Non-Toxic

**Q.** What about the inhibition [33] of the same compound?
**A.** Dose-Dependent Effect

**Q.** What about the IC50 (U-937) of the same compound?
**A.** > 2000 nM

**Q.** And the inhibition [34]?
**A.** Dose-Dependent Effect
